Values joined by “and” are separate entries in the source; they are usually repeats but may differ in a detail not shown here. Equal entries are not always repeated. Structures can show the parent of a compound that is named as a salt. Where two headings read alike, the source gives them in different places.
How the values were obtained:
[1] = In vitro PAR transport across harvested intestinal segments, EasyMount Ussing System: duodenum; format: in vitro ADME; conditions: rat, 5 mg/ml (~25 mg) paromomycin in mucosal chamber, tissue area 0.5 sq cm
Experimental: (§1) HEPES buffer was used as the base mucosal and serosal fluid. […] First 5 ml of HEPES buffer was added to each of the two chambers (mucosal and serosal) and allowed to equilibrate for 20 min. […] Aliquots of sample solution were removed from the chamber on other side of the mounted intestinal segment periodically and replaced with an equal volume of fresh warm HEPES buffer.
(§2) These additives, either alone or in combinations, were dissolved in HEPES buffer on percent weight/weight basis of the HEPES medium. Owing to the expected variation in the in-vitro conditions and harvested rat intestinal segments, four replicates were used per experimental condition.
(§3) The apparent permeability coefficients (Papp) were calculated according to:
(§4) Papp=(dQ/dt)/C0×A, where dQ/dt is the linear appearance rate of mass in receiver compartment, C0 is the initial solute concentration in donor compartment, and A is the surface area.
(§5) The drug in post column eluant was derivatized with Dinitrofluorobenzene (DNFB) and monitored at 360 nm. The run time was 30 minutes.

[2] = In vitro PAR transport across harvested intestinal segments, EasyMount Ussing System: jejunum; format: in vitro ADME; conditions: rat; for Papp at 15 mg/ml: 15 mg/ml PAR
Experimental: HEPES buffer was used as the base mucosal and serosal fluid. […] First 5 ml of HEPES buffer was added to each of the two chambers (mucosal and serosal) and allowed to equilibrate for 20 min. […] Aliquots of sample solution were removed from the chamber on other side of the mounted intestinal segment periodically and replaced with an equal volume of fresh warm HEPES buffer. […] These additives, either alone or in combinations, were dissolved in HEPES buffer on percent weight/weight basis of the HEPES medium. Owing to the expected variation in the in-vitro conditions and harvested rat intestinal segments, four replicates were used per experimental condition. The apparent permeability coefficients (Papp) were calculated according to: Papp=(dQ/dt)/C0×A, where dQ/dt is the linear appearance rate of mass in receiver compartment, C0 is the initial solute concentration in donor compartment, and A is the surface area. […] The drug in post column eluant was derivatized with Dinitrofluorobenzene (DNFB) and monitored at 360 nm. The run time was 30 minutes.

[3] = In vitro PAR transport across harvested intestinal segments, EasyMount Ussing System: ileum; format: in vitro ADME; conditions: rat, 5 mg/ml (~25 mg) paromomycin in mucosal chamber, tissue area 0.5 sq cm
Experimental: as §1, §2, §3, §4, §5

[4] = In vitro PAR transport across harvested intestinal segments, EasyMount Ussing System: colon; format: in vitro ADME; conditions: rat, 5 mg/ml (~25 mg) paromomycin in mucosal chamber, tissue area 0.5 sq cm
Experimental: as §1, §2, §3, §4, §5

[5] = Paromomycin in vivo absorption (pharmacokinetic) studies in rats; set-up: species or system Male rats (Sprague Dawley)
Experimental: Paromomycin was extracted from plasma samples (100 μl volume) with phenylboronic acid solid phase extraction columns, and the bound drug was eluted from the columns with 1% (v/v) formic acid in water. The acid eluates were evaporated under vacuum, and then the dry residues were reconstituted in 100 μl of 1 mM heptafluorobutyric acid (HFBA) in water.

[6] = historically considered (ref. 6); cited from earlier work
[7] = male rats, i.v. 100 mg/kg, Group #1, individual rats, 100 mg/kg
[8] = male, Sprague Dawley, rat, plasma, iv, 100 mg/kg, i.v. 100 mg/kg, Group #1, Mean of 3 rats

## NC[C@@H]1O[C@H](O[C@H]2[C@@H](O)[C@H](O[C@@H]3[C@@H](O)[C@H](N)C[C@H](N)[C@H]3O[C@H]3O[C@H](CO)[C@@H](O)[C@H](O)[C@H]3N)O[C@@H]2CO)[C@H](N)[C@@H](O)[C@@H]1O [PAR, Paromomycin sulfate]
[1]
  Papp at […], 5 mg/ml: 1.94 ×10⁻⁶ cm/s
[2]; jejunum M-to-S, Sodium Decanoate in mucosal 0.2 mg/ml (equilibrated 20 min before drug)
  Papp at 15 mg/ml: 1.48 ×10⁻⁶ cm/s
[2]; jejunum M-to-S, Sodium Decanoate in mucosal 0.5 mg/ml (equilibrated)
  Papp at 15 mg/ml: 2.22 ×10⁻⁶ cm/s
[2]; jejunum M-to-S, Sodium Decanoate in mucosal 1 mg/ml (equilibrated)
  Papp at 15 mg/ml: 4.4 ×10⁻⁶ cm/s
[2]; jejunum M-to-S, Sodium Decanoate in mucosal 1 mg/ml (not equilibrated)
  Papp at 15 mg/ml: 3.83 ×10⁻⁶ cm/s
[2]; jejunum M-to-S, Sodium Decanoate in serosal 0.2 mg/ml (not equilibrated)
  Papp at 15 mg/ml: 3.86 ×10⁻⁶ cm/s
[2]; jejunum M-to-S, Sodium Decanoate in serosal 0.5 mg/ml (not equilibrated)
  Papp at 15 mg/ml: 3.54 ×10⁻⁶ cm/s
[2]; jejunum M-to-S, Sodium Decanoate in serosal 1.0 mg/ml (not equilibrated)
  Papp at 15 mg/ml: 7.2 ×10⁻⁶ cm/s
[2]; jejunum M-to-S, no Quinidine, no Sodium Decanoate, tissue area 0.5 sq cm
  Papp at 15 mg/ml: 2.63 ×10⁻⁶ cm/s
[2]; jejunum S-to-M, no Quinidine
  Papp at 15 mg/ml: 2.75 ×10⁻⁶ cm/s
[2]; jejunum, 5 mg/ml (~25 mg) paromomycin in mucosal chamber, tissue area 0.5 sq cm
  Papp at […], 5 mg/ml: 3.93 ×10⁻⁶ cm/s
[2]; with quinidine 0.05 mg/ml in mucosal chamber, jejunum M-to-S, 0.05 mg/ml Quinidine in mucosal
  Papp at 15 mg/ml: 4.37 ×10⁻⁶ cm/s
[2]; with quinidine 0.05 mg/ml in mucosal chamber, jejunum S-to-M, 0.05 mg/ml Quinidine in mucosal
  Papp at 15 mg/ml: 1.85 ×10⁻⁶ cm/s
[3]
  Papp at […], 5 mg/ml: 2.22 ×10⁻⁶ cm/s
[4]
  Papp at […], 5 mg/ml: 2.07 ×10⁻⁶ cm/s
[5]; male rats, i.v. 100 mg/kg in sterile saline, Group #1, individual rats, 100 mg/kg
  t1/2: 2.70 h and 2.86 h
[5]; male rats, i.v. 100 mg/kg, Group #1, Mean of 3 rats
  V: 5.40 L/kg
[5]; [7]
  AUC: 55465 ng·h/mL and 85847 ng·h/mL
  Cl: 1.80 L/h/kg and 1.16 L/h/kg
  Cmax: 95.651 µg/mL and 101.318 µg/mL
  V: 4.39 L/kg and 7.01 L/kg and 4.80 L/kg
[5]; male, Sprague Dawley, rat, plasma, iv, 100 mg/kg, i.v. 100 mg/kg in sterile saline, Group #1, individual rats
  half-life: 171 min
[5]; [8]
  clearance: 22.3 mL/min/kg
  half-life: 168 min
[5]; male, Sprague Dawley, rat, plasma, iv, 100 mg/kg, i.v. 100 mg/kg, Group #1, Mean of 3 rats, read-out: AUC
  AUC: 78300 ng·h/mL
[5]; male, Sprague Dawley, rat, plasma, iv, 100 mg/kg, i.v. 100 mg/kg, Group #1, Mean of 3 rats, read-out: Cmax
  Cmax: 124 µg/mL
[5]; male, Sprague Dawley, rat, plasma, iv, 100 mg/kg, i.v. 100 mg/kg, Group #1, individual rats
  clearance: 17.8 mL/min/kg
[5]; male, Sprague Dawley, rat, plasma, iv, 100 mg/kg, i.v. 100 mg/kg, Group #1, individual rats, read-out: AUC
  AUC: 93500 ng·h/mL
[5]; male, Sprague Dawley, rat, plasma, iv, 100 mg/kg, i.v. 100 mg/kg, Group #1, individual rats, read-out: Cmax
  Cmax: 174 µg/mL
[6]
  oral bioavailability: close to zero
